In publication PMC9525273 (Nature Communications, 2022):
Where “and” joins values, the source holds several entries; their conditions need not be identical. Equal values may be shown once. Read-outs that look alike come from different tables or passages of the source.

What was measured:
[1] = test system: extracellular T. gondii tachyzoites expressing TgATP4^G419S-HA; experiment: [Na+]cyt measurement (SBFI), Na+ dysregulation; assay type: cell-based, Toxoplasma gondii; set-up: Final [Na+]cyt reached: unit not given here; details: TgATP4G419S-HA; for IC50: Toxoplasma gondii
Description: (§1) The ratio of the fluorescence intensity recorded at 340 nm and 380 nm (with an emission wavelength of 515 nm) was converted to [Na^+]cyt using a calibration procedure that entailed suspending parasites in solutions of varying [Na^+] containing ionophores. Fluorescence measurements and calibrations were performed at 37 °C, either with individual 1 mL suspensions using a PerkinElmer LS 50B fluorescence spectrometer (for resting [Na^+]cyt measurements for which the data are shown in Supplementary Fig. 7) or in 96-well plates using a Tecan Infinite M1000 PRO plate reader with i-control (version 1.12) software (all other [Na^+]cyt measurements).

[2] = test system: extracellular T. gondii tachyzoites expressing TgATP4^WT; experiment: [Na+]cyt measurement (SBFI), Na+ dysregulation; assay type: cell-based, Toxoplasma gondii; set-up: Final [Na+]cyt reached: unit not given here
Description: as §1

[3] = 1.5 h, ~90 min exposure, 37 °C, pH 7.1, read-out: IC50 for Na+ dysregulation
[4] = MEAN, source data of Table 1 (nM there), read-out: IC50 for Na+ dysregulation, MEAN
[5] = single experiments, source data of Table 1 (nM there), read-out: IC50 for Na+ dysregulation
[6] = Toxoplasma gondii, 1.5 h, pH 7.1, WT T. gondii (TgATP4WT), ~90 min exposure, 37 °C, pH 7.1, mean ± SEM, read-out: IC50 for Na+ dysregulation
[7] = Toxoplasma gondii, WT T. gondii, MEAN, source data of Table 1 (nM there), read-out: IC50 for Na+ dysregulation, MEAN
[8] = Toxoplasma gondii, WT T. gondii, single experiments, source data of Table 1 (nM there), read-out: IC50 for Na+ dysregulation
[9] = WT T. gondii, single experiments, source data of Table 1 (nM there), read-out: IC50 for Na+ dysregulation

C[C@H]1Cc2c([nH]c3cc(Cl)c(F)cc23)[C@@]2(N1)C(=O)Nc1ccc(Cl)cc12 [Cipargamin]
Final [Na+]cyt reached ([1]; [cipargamin] 7.8 nM, MEAN): 14.1 | Final [Na+]cyt reached ([1]; [cipargamin] 7.8 nM, single experiments): 13.4 and 14.3 and 14.5 | Final [Na+]cyt reached ([1]; [cipargamin] 15.6 nM, MEAN): 15.4 | Final [Na+]cyt reached ([1]; [cipargamin] 15.6 nM, single experiments): 14.1 and 15.1 and 17.0 | Final [Na+]cyt reached ([1]; [cipargamin] 31.3 nM, MEAN): 15.4 | Final [Na+]cyt reached ([1]; [cipargamin] 31.3 nM, single experiments): 13.9 and 14.5 and 17.9 | Final [Na+]cyt reached ([1]; [cipargamin] 62.5 nM, MEAN): 14.3 | Final [Na+]cyt reached ([1]; [cipargamin] 62.5 nM, single experiments): 13.2 and 14.1 and 15.7 | Final [Na+]cyt reached ([1]; [cipargamin] 250 nM, MEAN): 13.7 | Final [Na+]cyt reached ([1]; [cipargamin] 250 nM, single experiments): 13.6 and 14.5 and 12.9 | Final [Na+]cyt reached ([1]; [cipargamin] 500 nM, MEAN): 14.5 | Final [Na+]cyt reached ([1]; [cipargamin] 500 nM, single experiments): 12.6 and 13.5 and 17.5 | Final [Na+]cyt reached ([1]; [cipargamin] 1000 nM, MEAN): 16.4 | Final [Na+]cyt reached ([1]; [cipargamin] 1000 nM, single experiments): 14.3 and 16.7 and 18.1 | Final [Na+]cyt reached ([1]; [cipargamin] 2000 nM, MEAN): 17.1 | Final [Na+]cyt reached ([1]; [cipargamin] 2000 nM, single experiments): 13.3 and 17.0 and 20.8 | Final [Na+]cyt reached ([1]; [cipargamin] 4000 nM, MEAN): 24.3 | Final [Na+]cyt reached ([1]; [cipargamin] 4000 nM, single experiments): 22.1 and 21.4 and 29.4 | Final [Na+]cyt reached ([1]; [cipargamin] 8000 nM, MEAN): 34.2 | Final [Na+]cyt reached ([1]; [cipargamin] 8000 nM, single experiments): 32.0 and 31.0 and 39.5 | IC50 [1, 3]: > 8000 nM | IC50 [1, 4]: > 8000 nM | IC50 [1, 5]: > 8000 nM | IC50 [2, 6]: 110 ± 3 nM | IC50 [2, 7]: 110 nM | IC50 [2, 8]: 103 nM | Final [Na+]cyt reached ([2]; WT T. gondii, [cipargamin] 0.5 nM, MEAN): 15.8 | Final [Na+]cyt reached ([2]; WT T. gondii, [cipargamin] 0.5 nM, single experiments): 14.2 and 16.3 and 16.8 | Final [Na+]cyt reached ([2]; WT T. gondii, [cipargamin] 1.0 nM, MEAN): 16.2 | Final [Na+]cyt reached ([2]; WT T. gondii, [cipargamin] 1.0 nM, single experiments): 15.5 and 17.0 and 16.2 | Final [Na+]cyt reached ([2]; WT T. gondii, [cipargamin] 2.0 nM, MEAN): 14.1 | Final [Na+]cyt reached ([2]; WT T. gondii, [cipargamin] 3.9 nM, MEAN): 20.7 | Final [Na+]cyt reached ([2]; WT T. gondii, [cipargamin] 3.9 nM, single experiments): 19.6 and 20.6 and 21.8 | Final [Na+]cyt reached ([2]; WT T. gondii, [cipargamin] 7.8 nM, MEAN): 23.3 | Final [Na+]cyt reached ([2]; WT T. gondii, [cipargamin] 7.8 nM, single experiments): 25.2 and 22.3 and 22.5 | Final [Na+]cyt reached ([2]; WT T. gondii, [cipargamin] 15.6 nM, MEAN): 26.7 | Final [Na+]cyt reached ([2]; WT T. gondii, [cipargamin] 15.6 nM, single experiments): 29.0 and 26.8 and 24.3 | Final [Na+]cyt reached ([2]; WT T. gondii, [cipargamin] 31.3 nM, MEAN): 34.0 | Final [Na+]cyt reached ([2]; WT T. gondii, [cipargamin] 31.3 nM, single experiments): 35.7 and 36.9 and 29.4 | Final [Na+]cyt reached ([2]; WT T. gondii, [cipargamin] 62.5 nM, MEAN): 44.2 | Final [Na+]cyt reached ([2]; WT T. gondii, [cipargamin] 62.5 nM, single experiments): 43.2 and 51.7 and 37.6 | Final [Na+]cyt reached ([2]; WT T. gondii, [cipargamin] 250 nM, MEAN): 75.6 | Final [Na+]cyt reached ([2]; WT T. gondii, [cipargamin] 250 nM, single experiments): 72.9 and 86.9 and 66.9 | Final [Na+]cyt reached ([2]; WT T. gondii, [cipargamin] 500 nM, MEAN): 86.6 | Final [Na+]cyt reached ([2]; WT T. gondii, [cipargamin] 500 nM, single experiments): 82.0 and 102.0 and 75.9 | Final [Na+]cyt reached ([2]; WT T. gondii, [cipargamin] 1000 nM, MEAN): 91.2 | Final [Na+]cyt reached ([2]; WT T. gondii, [cipargamin] 1000 nM, single experiments): 85.2 and 107.2 and 81.2 | IC50 [2, 9]: 113 nM

N#Cc1cc(NC(=O)[C@H]2c3ccccc3C(=O)N(CC(F)(F)F)[C@@H]2c2cccnc2)ccc1F [(+)-SJ733]
Final [Na+]cyt reached ([1]; [(+)-SJ733] 19.5 nM, MEAN): 11.4 | Final [Na+]cyt reached ([1]; [(+)-SJ733] 39.1 nM, MEAN): 14.1 | Final [Na+]cyt reached ([1]; [(+)-SJ733] 39.1 nM, single experiments): 15.8 and 12.1 and 14.4 | Final [Na+]cyt reached ([1]; [(+)-SJ733] 78.1 nM, MEAN): 14.7 | Final [Na+]cyt reached ([1]; [(+)-SJ733] 78.1 nM, single experiments): 18.4 and 12.6 and 13.2 | Final [Na+]cyt reached ([1]; [(+)-SJ733] 156.3 nM, MEAN): 13.7 | Final [Na+]cyt reached ([1]; [(+)-SJ733] 156.3 nM, single experiments): 14.7 and 11.2 and 15.2 | Final [Na+]cyt reached ([1]; [(+)-SJ733] 312.5 nM, MEAN): 13.9 | Final [Na+]cyt reached ([1]; [(+)-SJ733] 312.5 nM, single experiments): 15.6 and 11.4 and 14.7 | Final [Na+]cyt reached ([1]; [(+)-SJ733] 625 nM, MEAN): 13.0 | Final [Na+]cyt reached ([1]; [(+)-SJ733] 625 nM, single experiments): 14.4 and 12.2 and 12.5 | Final [Na+]cyt reached ([1]; [(+)-SJ733] 2500 nM, MEAN): 13.7 | Final [Na+]cyt reached ([1]; [(+)-SJ733] 2500 nM, single experiments): 15.4 and 12.6 and 13.0 | Final [Na+]cyt reached ([1]; [(+)-SJ733] 5000 nM, MEAN): 13.4 | Final [Na+]cyt reached ([1]; [(+)-SJ733] 5000 nM, single experiments): 14.6 and 12.4 and 13.1 | Final [Na+]cyt reached ([1]; [(+)-SJ733] 10000 nM, MEAN): 12.1 | Final [Na+]cyt reached ([1]; [(+)-SJ733] 10000 nM, single experiments): 13.0 and 11.9 and 11.5 | Final [Na+]cyt reached ([1]; [(+)-SJ733] 20000 nM, MEAN): 12.6 | Final [Na+]cyt reached ([1]; [(+)-SJ733] 20000 nM, single experiments): 13.7 and 11.8 and 12.3 | Final [Na+]cyt reached ([1]; [(+)-SJ733] 40000 nM, MEAN): 11.6 | Final [Na+]cyt reached ([1]; [(+)-SJ733] 40000 nM, single experiments): 12.7 and 10.4 and 11.7 | IC50 [1, 3]: > 40000 nM | IC50 [1, 4]: > 40000 nM | IC50 [1, 5]: > 40000 nM | IC50 [2, 6]: 5040 ± 572 nM | IC50 [2, 7]: 5040 nM | IC50 [2, 8]: 4900 nM | Final [Na+]cyt reached ([2]; WT T. gondii, [(+)-SJ733] 19.5 nM, MEAN): 11.8 | Final [Na+]cyt reached ([2]; WT T. gondii, [(+)-SJ733] 39.1 nM, MEAN): 11.7 | Final [Na+]cyt reached ([2]; WT T. gondii, [(+)-SJ733] 78.1 nM, MEAN): 12.4 | Final [Na+]cyt reached ([2]; WT T. gondii, [(+)-SJ733] 156.3 nM, MEAN): 13.8 | Final [Na+]cyt reached ([2]; WT T. gondii, [(+)-SJ733] 312.5 nM, MEAN): 15.1 | Final [Na+]cyt reached ([2]; WT T. gondii, [(+)-SJ733] 625 nM, MEAN): 18.3 | Final [Na+]cyt reached ([2]; WT T. gondii, [(+)-SJ733] 2500 nM, MEAN): 32.1 | Final [Na+]cyt reached ([2]; WT T. gondii, [(+)-SJ733] 2500 nM, single experiments): 21.7 and 37.9 and 34.1 and 34.6 | Final [Na+]cyt reached ([2]; WT T. gondii, [(+)-SJ733] 5000 nM, MEAN): 48.9 | Final [Na+]cyt reached ([2]; WT T. gondii, [(+)-SJ733] 5000 nM, single experiments): 41.9 and 51.4 and 51.0 | Final [Na+]cyt reached ([2]; WT T. gondii, [(+)-SJ733] 10000 nM, MEAN): 65.1 | Final [Na+]cyt reached ([2]; WT T. gondii, [(+)-SJ733] 10000 nM, single experiments): 65.8 and 64.6 and 71.3 and 58.7 | Final [Na+]cyt reached ([2]; WT T. gondii, [(+)-SJ733] 20000 nM, MEAN): 76.4 | Final [Na+]cyt reached ([2]; WT T. gondii, [(+)-SJ733] 20000 nM, single experiments): 74.3 and 76.4 and 85.9 and 69.1 | Final [Na+]cyt reached ([2]; WT T. gondii, [(+)-SJ733] 40000 nM, MEAN): 81.2 | Final [Na+]cyt reached ([2]; WT T. gondii, [(+)-SJ733] 40000 nM, single experiments): 81.0 and 95.3 and 67.2 | IC50 [2, 9]: 4780 nM and 6620 nM and 3880 nM
